Test results: patent US20240109905A1, “4-ALKOXY-6-OXO-PYRIDAZINE DERIVATIVES MODULATING NLRP3” (JANSSEN PHARMACEUTICA NV, priority 2021, published 2024)
Read-outs that look alike come from different tables or passages of the source.

Key:
IL-1β = experiment: PBMC assay: IL-1β release after LPS stimulation; type: cell-based; settings: human PBMCs, 30 min compound, 100 ng/ml LPS for 6 hrs, MSD, read-out: IL1β AC50
Experimental: The activity of a compound according to the present invention can be assessed by in vitro methods.
(§1) Peripheral venous blood was collected from healthy individuals and human peripheral blood mononuclear cells (PBMCs) were isolated from blood by Ficoll-Histopaque (Sigma-Aldrich, A0561) density gradient centrifugation. After isolation, PBMCs were stored in liquid nitrogen for later use. Upon thawing, PBMC cell viability was determined in growth medium (RPMI media supplemented with 10% fetal bovine serum, 1% Pen-Strep and 1% L-glutamine). Compounds were spotted in a 1:3 serial dilution in DMSO and diluted to the final concentration in 30 μl medium in 96 well plates (Falcon, 353072). PBMCs were added at a density of 7.5×10^4 cells per well and incubated for 30 min in a 5% CO2 incubator at 37° C. LPS stimulation was performed by addition of 100 ng/ml LPS (final concentration, Invivogen, tlrl-smlps) for 6 hrs followed by collection of cellular supernatant and the analysis of IL-1β (μM) and TNF cytokines levels (μM) via MSD technology according to manufacturers' guidelines (MSD, K151A0H).
(§2) IC50 and AC50 values (for […]) and EC50 and AC50 values (TNF) were obtained on compounds of the invention/examples, and the AC50 values are depicted in the following table: […]

TNF = experiment: PBMC assay: TNF cytokine level after LPS stimulation; type: cell-based; settings: human PBMCs, 30 min compound, 100 ng/ml LPS for 6 hrs, MSD
Experimental: as §1, §2

Row | SMILES | AC50 (IL-1β; PBMC) [nM] | AC50 (TNF; PBMC) [nM] | AC50 (IL-1β) [nM] | AC50 (TNF) [nM]
1 | CC(C)c1nn(CC(=O)Nc2ccc3nncn3c2)c(=O)cc1OC1CCN(C(=O)OC(C)(C)C)C1 (centres unmarked) [Compound 1F, tert-butyl 3-((1-(2-([1,2,4]triazolo[4,3-a]pyridin-6-ylamino)-2-oxoethyl)-3-isopropyl-6-oxo-1,6-dihydropyridazin-4-yl)oxy)pyrrolidine-1-carboxylate] | > 15000 | > 10000 | – | –
2 | CC(C)c1nn(CC(=O)Nc2ccc3nncn3c2)c(=O)cc1OCC1CN(C(=O)OC(C)(C)C)C1 [Compound 2F] | > 15000 | > 10000 | – | –
3 | CC(C)c1nn(CC(=O)Nc2ccc3nncn3c2)c(=O)cc1OC1CN(C(=O)OC(C)(C)C)C1 [Compound 3F] | > 15000 | > 10000 | – | –
4 | CC(Oc1cc(=O)n(CC(=O)Nc2ccc3nncn3c2)nc1C(C)C)C(=O)N(C)C (centres unmarked) [Compound 4F] | > 15000 | > 10000 | – | –
5 | CC(C)c1nn(CC(=O)Nc2ccc3nncn3c2)c(=O)cc1OC1CCCC1 [Compound 5F] | 470 | > 10000 | – | –
6 | CC(C)c1nn(CC(=O)Nc2ccc3nncn3c2)c(=O)cc1OCC1CS(=O)(=O)C1 [Compound 6F] | > 15000 | > 10000 | – | –
7 | CC(C)c1nn(CC(=O)Nc2ccc3nncn3c2)c(=O)cc1OCC1CCC1 [Compound 7F] | 210 | > 10000 | – | –
8 | CC(C)c1nn(CC(=O)Nc2ccc3nncn3c2)c(=O)cc1OCC(C)(F)F [Compound 8F] | 190 | > 10000 | – | –
9 | CCC(C)Oc1cc(=O)n(CC(=O)Nc2ccc3nncn3c2)nc1C(C)C (centres unmarked) [Compound 9F] | 560 | > 10000 | – | –
10 | CC(C)COc1cc(=O)n(CC(=O)Nc2ccc3nncn3c2)nc1C(C)C [Compound 10F] | 60 | > 10000 | – | –
11 | CC(C)c1nn(CC(=O)Nc2ccc3nncn3c2)c(=O)cc1OCC(C)(C)F [Compound 11F] | 320 | > 10000 | – | –
12 | CC(C)c1nn(CC(=O)Nc2ccc3nncn3c2)c(=O)cc1OCCN(C)C [Compound 12F] | > 15000 | > 10000 | – | –
13 | CC(C)c1nn(CC(=O)Nc2ccc3nncn3c2)c(=O)cc1OC1COC1 [Compound 13F] | > 15000 | > 10000 | – | –
14 | CC(C)c1nn(CC(=O)Nc2ccc3nncn3c2)c(=O)cc1OC1CCC1 [Compound 14F] | 680 | > 10000 | – | –
15 | CC(C)c1nn(CC(=O)Nc2ccc3nncn3c2)c(=O)cc1OCC1(C)COC1 [Compound 15F] | 2300 | > 10000 | – | –
16 | CC(C)c1nn(CC(=O)Nc2ccc3nncn3c2)c(=O)cc1OCC(C)(C)C(F)(F)F [Compound 16F] | 1560 | > 10000 | – | –
17 | CC(C)c1nn(CC(=O)Nc2ccc3nncn3c2)c(=O)cc1OCC(F)F [Compound 17F] | 690 | > 10000 | – | –
18 | CC(C)Oc1cc(=O)n(CC(=O)Nc2ccc3nncn3c2)nc1C(C)C [Compound 18F] | 660 | > 10000 | – | –
19 | CC(C)c1nn(CC(=O)Nc2ccc3nncn3c2)c(=O)cc1OCC1CC(F)(F)C1 [Compound 19F] | 5330 | > 10000 | – | –
20 | CC(C)c1nn(CC(=O)Nc2ccc3nncn3c2)c(=O)cc1OC(C)C(F)(F)F (centres unmarked) [Compound 20F] | 1290 | > 10000 | – | –
21 | CC(C)c1nn(CC(=O)Nc2ccc3nncn3c2)c(=O)cc1OCC1CC1(F)F (centres unmarked) [Compound 21F] | 650 | > 10000 | – | –
22 | CC(C)c1nn(CC(=O)Nc2ccc3nncn3c2)c(=O)cc1OCC1CC1 [Compound 22F] | 110 | > 10000 | – | –
23 | CC(C)c1nn(CC(=O)Nc2ccc3nncn3c2)c(=O)cc1OCC(F)(F)F [Compound 23F] | 160 | > 10000 | – | –
24 | CCCOc1cc(=O)n(CC(=O)Nc2ccc3nncn3c2)nc1C(C)C [Compound 24F] | 190 | > 10000 | – | –
25 | CC(C)c1nn(CC(=O)Nc2ccc3nncn3c2)c(=O)cc1Oc1ccccc1 [Compound 25F] | > 15000 | > 10000 | – | –
26 | CC(C)c1nn(CC(=O)Nc2ccc3nncn3c2)c(=O)cc1OC1CCOCC1 [Compound 26F] | 13600 | > 10000 | – | –
27 | COc1cc(=O)n(CC(=O)Nc2ccc3nncn3n2)nc1C(C)C [Compound 27C, N-([1,2,4]triazolo[4,3-b]pyridazin-6-yl)-2-(3-isopropyl-4-methoxy-6-oxopyridazin-1(6H)-yl)acetamide] | 13300 | > 10000 | – | –
28 | COc1c(C(C)C)nn(CC(=O)Nc2ccc3nncn3c2)c(=O)c1C1CC1 [Compound 28E] | > 15000 | > 10000 | – | –

Row | SMILES | AC50 (IL-1β; PBMC) [nM] | AC50 (TNF; PBMC) [nM] | AC50 (IL-1β) [nM] | AC50 (TNF) [nM]
29 | COc1c(C(C)C)nn(CC(=O)Nc2ccc3nncn3c2)c(=O)c1Br [Compound 29E] | > 15000 | > 10000 | – | –
30 | O=C(Cn1nc(C2CC2)c(OC2CCOCC2)cc1=O)Nc1ccc2nncn2c1 [Compound 30G] | 14600 | > 10000 | – | –
31 | CCOc1cc(=O)n(CC(=O)Nc2ccc3nncn3n2)nc1C1CC1 [Compound 31C] | 920 | > 10000 | – | –
32 | O=C(Cn1nc(C2CC2)c(OCC23CC(CO2)C3)cc1=O)Nc1ccc2nncn2n1 [Compound 32E] | 14600 | > 10000 | – | –
33 | CCOc1cc(=O)n(CC(=O)Nc2ccc3nncn3c2)nc1C1CC1 [Compound 33D] | 1250 | > 10000 | – | –
34 | COC(=O)C12CC(NC(=O)Cn3nc(C(C)C)c(OCC(C)C)cc3=O)(C1)C2 [Compound 36, methyl 3-(2-(4-isobutoxy-3-isopropyl-6-oxopyridazin-1(6H)-yl)acetamido)bicyclo[1.1.1]pentane-1-carboxylate] | 10 | 3810 | – | –
35 | COC(=O)C12CCC(NC(=O)Cn3nc(C(C)C)c(OCC(C)C)cc3=O)(CC1)C2 [Compound 38] | 20 | 12200 | – | –
36 | CC(C)COc1c(C(C)C)nn(CC(=O)Nc2ccc3nncn3n2)c(=O)c1Cl [Compound 39] | 20 | 600 | – | –
37 | CC(C)COc1cc(=O)n(CC(=O)Nc2ccc3nncn3n2)nc1C(C)C [Compound 41] | 40 | > 20000 | – | –
38 | Cc1c(OCC(C)C)c(C(C)C)nn(CC(=O)Nc2ccc3nncn3n2)c1=O [Compound 42] | 50 | 9410 | – | –
39 | CC(C)COc1cc(=O)n(CC(=O)Nc2nc3cnccn3n2)nc1C(C)C [Compound 43] | 70 | > 20000 | – | –
40 | CC(C)c1nn(CC(=O)Nc2ccc3nncn3n2)c(=O)c(Cl)c1OCC1CC1 [Compound 44, N-([1,2,4]triazolo[4,3-b]pyridazin-6-yl)-2-(5-chloro-4-(cyclopropylmethoxy)-3-isopropyl-6-oxopyridazin-1(6H)-yl)acetamide] | 70 | 3530 | – | –
41 | COC(=O)C12CCC(NC(=O)Cn3nc(C(C)C)c(OCC(C)C)cc3=O)(CC1)CC2 [Compound 45] | 70 | > 20000 | – | –
42 | CC(C)c1nn(CC(=O)Nc2ccc3nncn3n2)c(=O)c(Cl)c1OCC(C)(F)F [Compound 46] | 80 | 8170 | – | –
43 | CC(C)COc1cc(=O)n(CC(=O)Nc2ccncc2)nc1C(C)C [Compound 47] | 80 | > 20000 | – | –
44 | CCCOc1c(C(C)C)nn(CC(=O)Nc2ccc3nncn3n2)c(=O)c1Cl [Compound 48] | 90 | 4980 | – | –
45 | CC(C)COc1cc(=O)n(CC(=O)Nc2ccc3nccn3n2)nc1C(C)C [Compound 49] | 90 | > 20000 | – | –
46 | CC(C)c1nn(CC(=O)Nc2ccc3nncn3n2)c(=O)c(Cl)c1OCCC(F)(F)F [Compound 50] | 90 | 1620 | – | –
47 | CC(C)c1nn(CC(=O)Nc2ccc3nncn3n2)c(=O)cc1OCC1CC1 [Compound 51] | 90 | > 20000 | – | –
48 | CC(C)COc1cc(=O)n(CC(=O)Nc2ccncc2F)nc1C(C)C [Compound 52] | 90 | > 20000 | – | –
49 | CC(C)COc1cc(=O)n(CC(=O)Nc2nc3ccccn3n2)nc1C(C)C [Compound 53] | 100 | > 20000 | – | –
50 | Cc1c(OCC(C)C)c(C(C)C)nn(CC(=O)Nc2ccc3nncn3c2)c1=O [Compound 54, N-([1,2,4]triazolo[4,3-a]pyridin-6-yl)-2-(4-isobutoxy-3-isopropyl-5-methyl-6-oxopyridazin-1(6H)-yl)acetamide] | 100 | 15600 | – | –
51 | CC(C)c1nn(CC(=O)Nc2ccc3nncn3n2)c(=O)cc1OCC(C)(F)F [Compound 56] | 130 | > 20000 | – | –
52 | CC(C)c1nn(CC(=O)Nc2ccc3nncn3n2)c(=O)cc1OCC1(F)CC1 [Compound 57] | 140 | > 20000 | – | –
53 | CC(C)COc1cc(=O)n(CC(=O)Nc2ccc3nncn3n2)nc1N(C)C [Compound 58] | 150 | > 10000 | – | –
54 | CC(C)COc1cc(=O)n(NC23CCC(O)(CC2)C3)nc1C(C)C [Compound 59] | – | – | 160 | > 20000
55 | CC(C)COc1c(C(C)C)nn(CC(=O)Nc2ccc3nncn3c2)c(=O)c1Cl [Compound 60, N-([1,2,4]triazolo[4,3-a]pyridin-6-yl)-2-(5-chloro-4-isobutoxy-3-isopropyl-6-oxopyridazin-1(6H)-yl)acetamide] | 160 | > 20000 | – | –
